Assay results from patent US9133204B2, “5-membered heterocyclic amides and related compounds” (H. Lundbeck A/S, priority 2007, dated 2015).
pIC50: −log10 of the molar value.

Molecular target: T1, P2X7 receptor (Homo sapiens, UniProt Q99572)
T1 construct: host or cells: SH-SY5Y
T1 sequence (Q99572 1-595): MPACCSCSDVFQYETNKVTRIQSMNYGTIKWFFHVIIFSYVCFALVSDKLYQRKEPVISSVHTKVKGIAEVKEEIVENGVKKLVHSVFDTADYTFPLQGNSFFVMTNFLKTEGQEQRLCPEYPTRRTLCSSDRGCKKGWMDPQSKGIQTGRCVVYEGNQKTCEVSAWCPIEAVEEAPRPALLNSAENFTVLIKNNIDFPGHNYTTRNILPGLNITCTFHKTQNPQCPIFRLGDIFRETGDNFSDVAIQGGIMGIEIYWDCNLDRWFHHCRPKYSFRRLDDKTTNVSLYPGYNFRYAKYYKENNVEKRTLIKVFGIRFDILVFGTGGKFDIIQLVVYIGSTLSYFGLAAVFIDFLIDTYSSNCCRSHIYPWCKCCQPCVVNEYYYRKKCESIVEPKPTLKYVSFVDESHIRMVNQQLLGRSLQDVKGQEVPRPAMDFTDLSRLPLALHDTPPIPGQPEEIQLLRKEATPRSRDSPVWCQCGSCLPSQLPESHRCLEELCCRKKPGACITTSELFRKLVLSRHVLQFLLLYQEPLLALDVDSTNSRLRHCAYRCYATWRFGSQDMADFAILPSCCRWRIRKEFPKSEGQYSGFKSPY
Test: High throughput P2X7 calcium mobilization assay (Example 4A)
Assay type: cell-based
Conditions: SH-SY5Y cells; 50% decrease in fluorescence response of cells exposed to 80 μM BzATP; Table I
Procedure: A. High Throughput Assay of P2X7 Receptors
SH-SY5Y cells, ATCC Number CRL-2266, (American Type Culture Collection, Manassas, Va.) are cultured under DMEM/High medium supplemented with 10% FBS, and 10 mM HEPES (Invitrogen Corp., Carlsbad, Calif.) in 5% CO2 and at 37° C. One day prior to the experiment, cells are plated at a density of 100,000 cells/well in a 96 well black/clear TC plate (Corning® Costar®, Sigma-Aldrich Co., St. Louis, Mo.). At the beginning of the experiment, the culture medium is removed and cells are incubated with 50 μL of 2.3 μM Fluo-4 AM dye (Invitrogen Corp.) in the assay solution (5 mM KCl, 9.6 mM NaH2PO4.H2O, 25 mM HEPES, 280 mM sucrose, 5 mM glucose, and 0.5 mM CaCl2; pH is adjusted to 7.4 with NaOH) for an hour at 37° C. After one hour dye incubation, wells are rinsed once with 50 μL assay solution, and are then incubated for an hour at room temperature with 100 μL assay solution containing the test compound. The final concentration of test compound generally ranges from 1 to 2500 nM; for positive control cells, no test compound is added. After the one hour incubation, plates are transferred to a FLIPR^TETRA instrument (Molecular Devices, Sunnyvale, Calif.) for calcium mobilization analysis.
For determination of antagonist activity, 50 μL, of P2X7 agonist (2′(3)-O-(4-benzoyl-benzoyl)adenosine 5′-triphosephate (BzATP; Sigma-Aldrich) in the assay solution is transferred using the FLIPR into the plate, such that the final agonist concentration is 80 μM (about EC50). In negative control cells, 50 μL of assay solution without agonist is added at this stage. The peak fluorescence signal over a 2 minute period is then measured.
First, the average maximum relative fluorescent unit (RFU) response from the negative control wells (no agonist) is subtracted from the maximum response detected for each of the other experimental wells. Second, average maximum RFU response is calculated for the positive control wells (agonist wells).

Structure (SMILES) | pIC50
CSc1ccc(C(=O)NCC23CC4CC(CC(C4)C2)C3)s1 [Compound 75, N-(1-adamantylmethyl)-5-(methylthio)thiophene-2-carboxamide] | ≥ 5.70
O=C(NCC12CC3CC(CC(C3)C1)C2)c1ccc(Br)s1 [Compound 76, N-(1-adamantylmethyl)-5-bromothiophene-2-carboxamide] | ≥ 5.70
CCCc1ccc(C(=O)NCC23CC4CC(CC(C4)C2)C3)s1 [Compound 78, N-(1-adamantylmethyl)-5-propylthiophene-2-carboxamide] | ≥ 5.70
Cn1nc(C(F)(F)F)cc1-c1ccc(C(=O)NCC23CC4CC(CC(C4)C2)C3)s1 [Compound 80, N-(1-adamantylmethyl)-5-[1-methyl-3-(trifluoromethyl)-1H-pyrazol-5-yl]thiophene-2-carboxamide] | ≥ 5.70
Cn1nc(C(F)(F)F)cc1-c1ccc(C(=O)NCCC23CC4CC(CC(C4)C2)C3)s1 [Compound 85, N-[2-(1-adamantyl)ethyl]-5-[1-methyl-3-(trifluoromethyl)-1H-pyrazol-5-yl]thiophene-2-carboxamide] | ≥ 5.70
Cc1csc(C(=O)NCC23CC4CC(CC(C4)C2)C3)c1Cl [Compound 87, N-(adamantan-1-ylmethyl)-3-chloro-4-methylthiophene-2-carboxamide] | ≥ 5.70
Cc1cnc(-n2cc(C(=O)NCC34CC5CC(CC(C5)C3)C4)c(C)n2)nc1Br [Compound 91, N-(adamantan-1-ylmethyl)-1-(4-bromo-5-methylpyrimidin-2-yl)-3-methyl-1H-pyrazole-4-carboxamide] | ≥ 5.70
CNc1nc(-n2cc(C(=O)NCC34CC5CC(CC(C5)C3)C4)c(C)n2)ncc1C [Compound 92, N-(adamantan-1-ylmethyl)-3-methyl-1-[5-methyl-4-(methylamino)pyrimidin-2-yl]-1H-pyrazole-4-carboxamide] | ≥ 5.70
Cc1cnc(-n2cc(C(=O)NCC34CC5CC(CC(C5)C3)C4)c(C)n2)nc1-c1ccccc1 [Compound 93, N-(adamantan-1-ylmethyl)-3-methyl-1-(5-methyl-4-phenylpyrimidin-2-yl)-1H-pyrazole-4-carboxamide] | ≥ 5.70
Cc1cnc(-n2cc(C(=O)NCC34CC5CC(CC(C5)C3)C4)c(C)n2)nc1 [Compound 94, N-(adamantan-1-ylmethyl)-3-methyl-1-(5-methylpyrimidin-2-yl)-1H-pyrazole-4-carboxamide] | ≥ 5.70
Cc1cnc(-n2cc(C(=O)NCC34CC5CC(CC(C5)C3)C4)c(C)n2)nc1-c1cccnc1 [Compound 95, N-(adamantan-1-ylmethyl)-3-methyl-1-(5-methyl-4-pyridin-3-ylpyrimidin-2-yl)-1H-pyrazole-4-carboxamide] | ≥ 5.70
Cc1cnc(-n2cc(C(=O)NCC34CC5CC(CC(C5)C3)C4)c(C)n2)nc1C(N)=O [Compound 96, 2-{4-[(adamantan-1-ylmethyl)carbamoyl]-3-methyl-1H-pyrazol-1-yl}-5-methylpyrimidine-4-carboxamide] | ≥ 5.70
Cc1ccc(-n2cc(C(=O)NCC34CC5CC(CC(C5)C3)C4)c(C)n2)nc1 [Compound 97, N-(adamantan-1-ylmethyl)-3-methyl-1-(5-methylpyridin-2-yl)-1H-pyrazole-4-carboxamide] | ≥ 5.70
Cc1nn(-c2ccccn2)cc1C(=O)NCC12CC3CC(CC(C3)C1)C2 [Compound 98] | ≥ 5.70
Cc1nn(-c2nccc(N)n2)cc1C(=O)NCC12CC3CC(CC(C3)C1)C2 [Compound 99, N-(adamantan-1-ylmethyl)-1-(4-aminopyrimidin-2-yl)-3-methyl-1H-pyrazole-4-carboxamide] | ≥ 5.70
Cc1cnc(-n2cc(C(=O)NCC34CC5CC(CC(C5)C3)C4)c(C(C)C)n2)nc1N [Compound 100, N-(adamantan-1-ylmethyl)-1-(4-amino-5-methylpyrimidin-2-yl)-3-isopropyl-1H-pyrazole-4-carboxamide] | ≥ 5.70
Cc1nn(-c2ccncc2)cc1C(=O)NCC12CC3CC(CC(C3)C1)C2 [Compound 101, N-(adamantan-1-ylmethyl)-3-methyl-1-pyridin-4-yl-1H-pyrazole-4-carboxamide] | ≥ 5.70
CCc1cnc(-n2cc(C(=O)NCC34CC5CC(CC(C5)C3)C4)c(C)n2)nc1 [Compound 102, N-(adamantan-1-ylmethyl)-1-(5-ethylpyrimidin-2-yl)-3-methyl-1H-pyrazole-4-carboxamide] | ≥ 5.70
C=Cc1nc(-n2cc(C(=O)NCC34CC5CC(CC(C5)C3)C4)c(C)n2)ncc1C [Compound 103, N-(adamantan-1-ylmethyl)-3-methyl-1-(5-methyl-4-vinylpyrimidin-2-yl)-1H-pyrazole-4-carboxamide] | ≥ 5.70
Cc1cnc(-n2cc(C(=O)NCC34CC5CC(CC(C5)C3)C4)c(C)n2)nc1C(=O)N1CCCC1 [Compound 104, N-(adamantan-1 ylmethyl)-3-methyl-1-[5-methyl-4-(pyrrolidin-1-ylcarbonyl)pyrimidin-2-yl]-1H-pyrazole-4-carboxamide] | ≥ 5.70
Cc1cnc(-n2cc(C(=O)NCC34CC5CC(CC(C5)C3)C4)c(C)n2)nc1C(=O)N1CCC[C@@H](N)C1 [Compound 105, N-(adamantan-1-ylmethyl)-1-(4-{[(3R)-3-aminopiperidin-1-yl]carbonyl}-5-methylpyrimidin-2-yl)-3-methyl-1H-pyrazole-4-carboxamide] | ≥ 5.70
CCc1nc(-n2cc(C(=O)NCC34CC5CC(CC(C5)C3)C4)c(C)n2)ncc1C [Compound 106, N-(adamantan-1-ylmethyl)-1-(4-ethyl-5-methylpyrimidin-2-yl)-3-methyl-1H-pyrazole-4-carboxamide] | ≥ 5.70
CCNC(=O)c1nc(-n2cc(C(=O)NCC34CC5CC(CC(C5)C3)C4)c(C)n2)ncc1C [Compound 107, 2-{4-[(adamantan-1-ylmethyl)carbamoyl]-3-methyl-1H-pyrazol-1-yl]-N-ethyl-5-methylpyrimidine-4-carboxamide] | ≥ 5.70
CCCNC(=O)c1nc(-n2cc(C(=O)NCC34CC5CC(CC(C5)C3)C4)c(C)n2)ncc1C [Compound 108, 2-{4-[(adamantan-1-ylmethyl)carbamoyl]-3-methyl-1H-pyrazol-1-yl}-5-methyl-N-propylpyrimidine-4-carboxamide] | ≥ 5.70
Cc1cnc(-n2cc(C(=O)NCC(CC(C)C)c3ccc(Cl)cc3)c(C)n2)nc1N (stereo not drawn) [Compound 109, 1-(4-amino-5-methylpyrimidin-2-yl)-N-[2-(4-chlorophenyl)-4-methylpentyl]-3-methyl-1H-pyrazole-4-carboxamide] | ≥ 5.70
Cc1nn(-c2ncc(F)c(N)n2)cc1C(=O)NCC12CC3CC(CC(C3)C1)C2 [Compound 110, N-(adamantan-1-ylmethyl)-1-(4-amino-5-fluoropyrimidin-2-yl)-3-methyl-1H-pyrazole-4-carboxamide] | ≥ 5.70
Cc1nn(-c2nccc(C(F)(F)F)n2)cc1C(=O)NCC12CC3CC(CC(C3)C1)C2 [Compound 111, N-(adamantan-1-ylmethyl)-3-methyl-1-[4-(trifluoromethyl)pyrimidin-2-yl]-1H-pyrazole-4-carboxamide] | ≥ 5.70
Cc1nn(-c2ncc(F)cn2)cc1C(=O)NCC12CC3CC(CC(C3)C1)C2 [Compound 112, N-(adamantan-1-ylmethyl)-1-(5-fluoropyrimidin-2-yl)-3-methyl-1H-pyrazole-4-carboxamide] | ≥ 5.70
Cc1nn(-c2ncc(F)c(N)n2)cc1C(=O)NCC(CC(C)C)c1ccc(Cl)cc1 (stereo not drawn) [Compound 113, 1-(4-amino-5-fluoropyrimidin-2-yl)-N-[2-(4-chlorophenyl)-4-methylpentyl]-3-methyl-1H-pyrazole-4-carboxamide] | ≥ 5.70
Cc1nn(-c2ncc(F)cn2)cc1C(=O)NCC(CC(C)C)c1ccc(Cl)cc1 (stereo not drawn) [Compound 114, N-[2-(4-chlorophenyl)-4-methylpentyl]-1-(5-fluoropyrimidin-2-yl)-3-methyl-1H-pyrazole-4-carboxamide] | ≥ 5.70
